Data from article PMC5669010 (AIDS Research and Therapy, 2017).
Like-named read-outs stand apart in the source and are kept apart here.

Columns and labels:
[1] = cited from earlier work
[2] = human, in vivo, 24 h
Method: (§1) Plasma samples were frozen and stored at – 80 °C until analysis.
(§2) Addition of elvitegravir and cobicistat to the method was partly validated, including selectivity, linearity, accuracy and recovery, inter- and intra-run repeatability, and stability.
(§3) Elvitegravir and cobicistat concentrations were compared to historical controls.

[3] = tested on: wild-type (non-protease inhibitor-resistant) virus; conditions: cited from earlier work
clinical = conditions: human, in vivo, Elvitegravir Ctrough,ss, individual patients
Method: as §1, §2, §3

[4] = population PK data for E/C/F/TDF, n = 419
[5] = 60 subjects, darunavir 800 mg/cobicistat 150 mg with two NRTIs

SMILES: CC(C)OC(=O)[C@H](C)N[P@](=O)(CO[C@H](C)Cn1cnc2c(N)ncnc21)Oc1ccccc1 [TAF, tenofovir alafenamide]
- Plasma concentrations of TAF ([1]; PK substudy of E/C/F/TAF plus darunavir switch study): at the lower end of the efficacious range

SMILES: COC(=O)N[C@H](C(=O)N[C@@H](Cc1ccccc1)[C@@H](O)CN(Cc1ccc(-c2ccccn2)cc1)NC(=O)[C@@H](NC(=O)OC)C(C)(C)C)C(C)(C)C [atazanavir]
- Effect of coadministration with elvitegravir/cobicistat on atazanavir trough levels ([1]; human, in vivo): significant lowering of atazanavir trough levels

SMILES: COc1cc2c(cc1Cc1cccc(Cl)c1F)c(=O)c(C(=O)O)cn2[C@H](CO)C(C)C [elvitegravir]
- Elvitegravir Ctrough,ss relative to protein-adjusted IC95 (45 ng/mL) [2]: more than 2 fold
- Elvitegravir Ctrough,ss, individual patients [2]: 82 ng/mL
- Elvitegravir Ctrough,ss, mean ([1]; E/C/F/TAF + DRV, N 15): 464 ng/mL
- Elvitegravir Ctrough,ss, mean ([1]; E/C/F/TDF + DRV, N 24): 234 ng/mL
- Elvitegravir Ctrough,ss, mean ([1]; E/C/F/TDF without darunavir, N 32): 250 ng/mL
- Elvitegravir Ctrough,ss, mean ([1]; E/C/F/TDF without darunavir, N 419, population pharmacokinetic estimate): 451 ng/mL
- Elvitegravir Cmax, mean [1, 4]: 1731 ng/mL
- Elvitegravir tmax [1, 4]: 4.0 h
- Protein-adjusted 95% inhibitory concentration (IC95) ([3]; wild type virus): 45 ng/mL
- concentration at 24 h (clinical): < 80 ng/mL

SMILES: CC(C)CN(C[C@@H](O)[C@H](Cc1ccccc1)NC(=O)O[C@H]1CO[C@H]2OCC[C@H]21)S(=O)(=O)c1ccc(N)cc1 [darunavir]
- Darunavir Cmax, mean [1, 5]: 7663 ng/mL
- Darunavir tmax, median [1, 5]: 3.5 h
- Half maximal effective concentration (EC50) ([3]; wild-type (non-protease inhibitor-resistant) virus): 55 ng/mL
- Protein-adjusted 50% inhibitory concentration (IC50) ([3]; wild-type virus): 55 ng/mL

SMILES: CC(C)c1nc(CN(C)C(=O)N[C@@H](CCN2CCOCC2)C(=O)N[C@H](CC[C@H](Cc2ccccc2)NC(=O)OCc2cncs2)Cc2ccccc2)cs1 [cobicistat]
- Cobicistat 24-h level, mean ([1]; 59 HIV-infected patients, darunavir/cobicistat with emtricitabine and tenofovir DF): 33 ng/mL
- Cobicistat C0h, mean [1, 5]: 76 ng/mL
- Cobicistat Cmax, mean [1, 5]: 991 ng/mL
- Cobicistat tmax, median [1, 5]: 3.5 h
- Cobicistat 24-h concentration, mean ([1]; patients taking E/C/F/TDF with darunavir): 20.2 ng/mL
